# Results taken from ChEMBL document CHEMBL1201861, “Genomics of Drug Sensitity in Cancer screening data, Wellcome Trust Sanger Institute”.
# Tests used:
# Assay in all cases: cells
# RPMI-8226 = assay type: functional, cell-based, Homo sapiens; conditions: Homo sapiens, RPMI-8226
# Description: SANGER: Inhibition of human RPMI-8226 cell growth in a cell viability assay.
# LNCaP-Clone-FGC = assay type: functional, cell-based, Homo sapiens; conditions: Homo sapiens, LNCaP-Clone-FGC
# Description: SANGER: Inhibition of human LNCaP-Clone-FGC cell growth in a cell viability assay.
# HOP-62 = assay type: functional, cell-based, Homo sapiens; conditions: Homo sapiens, HOP-62;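 also: cell growth inhibition determined with a viability assay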
# Description: SANGER: Inhibition of human HOP-62 cell growth in a cell viability assay.
# ES4 = assay type: functional, cell-based, Homo sapiens; conditions: Homo sapiens, ES4;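 also: growth inhibition of human ES4 cells, read out by a cell viability assay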
# U-87 MG = assay type: functional, cell-based, Homo sapiens, U-87MG ATCC; conditions: Homo sapiens, U-87 MG;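 also: growth inhibition of the cells measured with a viability assay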
# Description: SANGER: Inhibition of human U-87-MG cell growth in a cell viability assay.
# DSH1 = assay type: functional, cell-based; conditions: Homo sapiens;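 also: growth inhibition of human DSH1 cells, measured with a cell viability readout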
# Description: SANGER: Inhibition of human DSH1 cell growth in a cell viability assay.
# TE-1 = assay type: functional, cell-based, Homo sapiens; conditions: Homo sapiens, TE-1;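 also: growth inhibition of the human TE-1 cell line, read out with a cell viability assay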
# TK-10 = assay type: functional, cell-based, Homo sapiens; conditions: Homo sapiens, TK-10;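 also: growth inhibition of TK-10 cells, read out in a cell viability assay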
# Description: SANGER: Inhibition of human TK10 cell growth in a cell viability assay.
# HD-MY-Z = assay type: functional, cell-based, Homo sapiens; conditions: Homo sapiens, HD-MY-Z;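 also: growth inhibition of HD-MY-Z cells, read out with a cell viability assay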
# Description: SANGER: Inhibition of human HD-MY-Z cell growth in a cell viability assay.
# OCUB-M = assay type: functional, cell-based; conditions: Homo sapiens;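 also: growth inhibition of the cancer cell line, read out through a cell viability assay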
# Description: SANGER: Inhibition of human OCUB-M cell growth in a cell viability assay.
# no-10 = assay type: functional, cell-based, Homo sapiens; conditions: Homo sapiens;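 also: growth inhibition of no-10 cells, read out with a cell viability assay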
# Description: SANGER: Inhibition of human no-10 cell growth in a cell viability assay.
# GAK = assay type: functional, cell-based, Homo sapiens; conditions: Homo sapiens, GAK;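 also: cell growth inhibition read out by a cell viability assay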
# Description: SANGER: Inhibition of human GAK cell growth in a cell viability assay.
# GT3TKB = assay type: functional, cell-based, Homo sapiens; conditions: Homo sapiens, GT3TKB;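 also: growth inhibition of the cell line, read out with a cell viability assay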
# Description: SANGER: Inhibition of human GT3TKB cell growth in a cell viability assay.
# MLMA = assay type: functional, cell-based, Homo sapiens; conditions: Homo sapiens, MLMA;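 also: growth inhibition of MLMA cells (human), determined through a cell viability readout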
# Description: SANGER: Inhibition of human MLMA cell growth in a cell viability assay.
# HL-60 = assay type: functional, cell-based, Homo sapiens; conditions: Homo sapiens, HL-60;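 also: growth inhibition of human HL-60 cells, read out with a cell viability assay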
# Description: SANGER: Inhibition of human HL-60 cell growth in a cell viability assay.
# ETK-1 = assay type: functional, cell-based, Homo sapiens; conditions: Homo sapiens, ETK-1;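 also: growth inhibition of human ETK-1 cells, read out with a cell viability assay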
# Description: SANGER: Inhibition of human ETK-1 cell growth in a cell viability assay.
# MEG-01 = assay type: functional, cell-based, Homo sapiens; conditions: Homo sapiens, MEG-01;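 also: growth inhibition of MEG-01 cells, read out by a cell viability assay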
# Description: SANGER: Inhibition of human MEG-01 cell growth in a cell viability assay.
# NOMO-1 = assay type: functional, cell-based, Homo sapiens; conditions: Homo sapiens, NOMO-1;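 also: growth inhibition of human NOMO-1 cells measured by a cell viability assay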
# Description: SANGER: Inhibition of human NOMO-1 cell growth in a cell viability assay.
# C2BBe1 = assay type: functional, cell-based, Homo sapiens; conditions: Homo sapiens, C2BBe1;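 also: growth inhibition of C2BBe1 cells, read out through a viability assay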
# Description: SANGER: Inhibition of human C2BBe1 cell growth in a cell viability assay.
# MC116 = assay type: functional, cell-based, Homo sapiens; conditions: Homo sapiens, MC116;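 also: growth inhibition of MC116 cells, read out with a cell viability assay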
# Description: SANGER: Inhibition of human MC116 cell growth in a cell viability assay.
# NB13 = assay type: functional, cell-based, Homo sapiens; conditions: Homo sapiens, NB13;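 also: cell viability readout measuring growth inhibition of human NB13 cells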
# Description: SANGER: Inhibition of human NB13 cell growth in a cell viability assay.
# SJSA-1 = assay type: functional, cell-based, Homo sapiens; conditions: Homo sapiens, SJSA-1;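 also: growth inhibition of human SJSA-1 cells, read out through a cell viability measurement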
# Description: SANGER: Inhibition of human SJSA-1 cell growth in a cell viability assay.
# HT-144 = assay type: functional, cell-based, Homo sapiens; conditions: Homo sapiens, HT-144
# ES5 = assay type: functional, cell-based, Homo sapiens; conditions: Homo sapiens, ES5;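 also: growth inhibition of human ES5 cells, read out by a cell viability assay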
# Description: SANGER: Inhibition of human ES5 cell growth in a cell viability assay.
# BB49-HNC = assay type: functional, cell-based, Homo sapiens; conditions: Homo sapiens, BB49-HNC;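 also: cell viability assay read-out, reported as inhibition of BB49-HNC cell growth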
# Description: SANGER: Inhibition of human BB49-HNC cell growth in a cell viability assay.
# MMAC-SF = assay type: functional, cell-based; conditions: Homo sapiens;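 also: growth inhibition of human MMAC-SF cells, read out with a cell viability assay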
# D283 Med = assay type: functional, cell-based, Homo sapiens; conditions: Homo sapiens, D283 Med
# Description: SANGER: Inhibition of human D-283MED cell growth in a cell viability assay.
# JAR = assay type: functional, cell-based, Homo sapiens; conditions: Homo sapiens, JAR;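 also: growth inhibition of human JAR cells determined with a cell viability assay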
# Description: SANGER: Inhibition of human JAR cell growth in a cell viability assay.
# Becker = assay type: functional, cell-based, Homo sapiens; conditions: Homo sapiens, Becker;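 also: growth inhibition of Becker cells, read out with a cell viability assay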
# Description: SANGER: Inhibition of human Becker cell growth in a cell viability assay.
# KP-N-YS = assay type: functional, cell-based, Homo sapiens; conditions: Homo sapiens, KP-N-YS;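 also: cell viability assay measuring inhibition of cell line growth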
# Description: SANGER: Inhibition of human KP-N-YS cell growth in a cell viability assay.
# LS-411N = assay type: functional, cell-based, Homo sapiens; conditions: Homo sapiens, LS-411N
# 8-MG-BA = assay type: functional, cell-based, Homo sapiens; conditions: Homo sapiens, 8-MG-BA;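 also: growth inhibition of 8-MG-BA cells, read out with a cell viability assay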
# Description: SANGER: Inhibition of human 8-MG-BA cell growth in a cell viability assay.
# BB65-RCC = assay type: functional, cell-based, Homo sapiens; conditions: Homo sapiens, BB65-RCC;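 also: growth inhibition of the cell line, measured with a cell viability assay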
# Description: SANGER: Inhibition of human BB65-RCC cell growth in a cell viability assay.
# BB30-HNC = assay type: functional, cell-based, Homo sapiens; conditions: Homo sapiens, BB30-HNC;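 also: growth inhibition of the cultured cell line, read out by a cell viability assay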
# Description: SANGER: Inhibition of human BB30-HNC cell growth in a cell viability assay.
# DU-4475 = assay type: functional, cell-based, Homo sapiens; conditions: Homo sapiens, DU-4475
# Description: SANGER: Inhibition of human DU-4475 cell growth in a cell viability assay.
# SNB-75 = assay type: functional, cell-based, Homo sapiens; conditions: Homo sapiens, SNB-75;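 also: cell viability assay measuring growth inhibition of human SNB-75 cells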
# Description: SANGER: Inhibition of human SNB75 cell growth in a cell viability assay.
# SK-PN-DW = assay type: functional, cell-based, Homo sapiens; conditions: Homo sapiens, SK-PN-DW;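 also: growth inhibition measured with a viability assay on these cells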
# MHH-PREB-1 = assay type: functional, cell-based, Homo sapiens; conditions: Homo sapiens, MHH-PREB-1;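 also: cell viability assay measuring inhibition of proliferation of human MHH-PREB-1 cells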
# Description: SANGER: Inhibition of human MHH-PREB-1 cell growth in a cell viability assay.
# EW-11 = assay type: functional, cell-based, Homo sapiens; conditions: Homo sapiens, EW-11;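 also: growth inhibition of human EW-11 cells, measured with a cell viability assay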
# Description: SANGER: Inhibition of human EW-11 cell growth in a cell viability assay.
# SW 962 = assay type: functional, cell-based, Homo sapiens; conditions: Homo sapiens, SW 962;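 also: growth inhibition of human SW962 cells, read out by a cell viability assay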
# Description: SANGER: Inhibition of human SW962 cell growth in a cell viability assay.
# NCI-N87 = assay type: functional, cell-based; conditions: Homo sapiens;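 also: growth inhibition of human NCI-N87 cells, read out with a cell viability assay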
# Description: SANGER: Inhibition of human NCI-N87 cell growth in a cell viability assay.
# KS-1 = assay type: functional, cell-based; conditions: Homo sapiens;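 also: growth inhibition of KS-1 cells, read out with a cell viability assay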
# Description: SANGER: Inhibition of human KS-1 cell growth in a cell viability assay.
# SCH = assay type: functional, cell-based, Homo sapiens; conditions: Homo sapiens, SCH;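 also: growth inhibition of human SCH cells, read out in a cell viability assay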
# Description: SANGER: Inhibition of human SCH cell growth in a cell viability assay.
# IST-MEL1 = assay type: functional, cell-based, Homo sapiens; conditions: Homo sapiens, IST-MEL1;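 also: growth inhibition of the cell line, read out with a cell viability assay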
# PSN1 = assay type: functional, cell-based, Homo sapiens; conditions: Homo sapiens, PSN1;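 also: suppression of growth of human PSN1 cells, read out by a cell viability assay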
# Description: SANGER: Inhibition of human PSN1 cell growth in a cell viability assay.
# A498 = assay type: functional, cell-based, Homo sapiens; conditions: Homo sapiens, A498;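 also: growth inhibition of human A498 cells, read out with a cell viability assay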
# Description: SANGER: Inhibition of human A498 cell growth in a cell viability assay.
# A3-KAW = assay type: functional, cell-based, Homo sapiens; conditions: Homo sapiens, A3-KAW;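 also: growth inhibition of human A3-KAW cells, read out with a cell viability assay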
# Description: SANGER: Inhibition of human A3-KAW cell growth in a cell viability assay.
# LB771-HNC = assay type: functional, cell-based; conditions: Homo sapiens;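 also: growth inhibition of LB771-HNC human cells, read out with a cell viability assay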
# Description: SANGER: Inhibition of human LB771-HNC cell growth in a cell viability assay.
# NCI-H209 = assay type: functional, cell-based, Homo sapiens; conditions: Homo sapiens, NCI-H209;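 also: growth inhibition of human NCI-H209 cells, measured by a cell viability assay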
# Description: SANGER: Inhibition of human NCI-H209 cell growth in a cell viability assay.
# A704 = assay type: functional, cell-based; conditions: Homo sapiens;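 also: growth inhibition of human A704 cells, read out with a cell viability assay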
# Description: SANGER: Inhibition of human A704 cell growth in a cell viability assay.
# D-247MG = assay type: functional, cell-based; conditions: Homo sapiens
# Description: SANGER: Inhibition of human D-247MG cell growth in a cell viability assay.
compound,measurement,setting,value
COc1ccc(-c2cc3nccn3c(Nc3ncccc3C(N)=O)n2)cc1OC,IC50,RPMI-8226,> 8 µM
same,IC50,LNCaP-Clone-FGC,2180 nM
same,IC50,HOP-62,1750 nM
same,IC50,ES4,1240 nM
same,IC50,U-87 MG,> 8 µM
same,IC50,DSH1,> 8 µM
same,IC50,TE-1,> 8 µM
same,IC50,TK-10,6.96 µM
same,IC50,HD-MY-Z,> 8 µM
same,IC50,OCUB-M,4.11 µM
same,IC50,no-10,> 8 µM
same,IC50,GAK,> 8 µM
same,IC50,GT3TKB,> 8 µM
same,IC50,MLMA,993 nM
same,IC50,HL-60,> 8 µM
same,IC50,ETK-1,5.21 µM
same,IC50,MEG-01,5.28 µM
same,IC50,NOMO-1,7.38 µM
same,IC50,C2BBe1,> 8 µM
same,IC50,MC116,2510 nM
same,IC50,NB13,3.24 µM
same,IC50,SJSA-1,3.77 µM
same,IC50,HT-144,3.72 µM
same,IC50,ES5,> 8 µM
same,IC50,BB49-HNC,3.3 µM
same,IC50,MMAC-SF,> 8 µM
same,IC50,D283 Med,> 8 µM
same,IC50,JAR,> 8 µM
same,IC50,Becker,> 8 µM
same,IC50,KP-N-YS,7 µM
same,IC50,LS-411N,3.78 µM
same,IC50,8-MG-BA,> 8 µM
same,IC50,BB65-RCC,5.13 µM
same,IC50,BB30-HNC,2820 nM
same,IC50,DU-4475,2170 nM
same,IC50,SNB-75,> 8 µM
same,IC50,SK-PN-DW,5.37 µM
same,IC50,MHH-PREB-1,2550 nM
same,IC50,EW-11,> 8 µM
same,IC50,SW 962,> 8 µM
same,IC50,NCI-N87,> 8 µM
same,IC50,KS-1,2780 nM
same,IC50,SCH,> 8 µM
same,IC50,IST-MEL1,4.61 µM
same,IC50,PSN1,897 nM
same,IC50,A498,> 8 µM
same,IC50,A3-KAW,740 nM
same,IC50,LB771-HNC,> 8 µM
same,IC50,NCI-H209,> 8 µM
same,IC50,A704,> 8 µM
C[C@@H](Oc1cc(-c2cnn(C3CCNCC3)c2)cnc1N)c1c(Cl)ccc(F)c1Cl [CRIZOTINIB],IC50,RPMI-8226,> 2 µM
same,IC50,LNCaP-Clone-FGC,> 2000 nM
same,IC50,HOP-62,> 2000 nM
same,IC50,ES4,> 2000 nM
same,IC50,U-87 MG,> 2 µM
same,IC50,DSH1,> 2 µM
same,IC50,TE-1,> 2 µM
same,IC50,TK-10,> 2 µM
same,IC50,HD-MY-Z,> 2 µM
same,IC50,OCUB-M,> 2 µM
same,IC50,no-10,> 2 µM
same,IC50,GT3TKB,> 2 µM
same,IC50,MLMA,> 2000 nM
same,IC50,HL-60,> 2 µM
same,IC50,ETK-1,> 2 µM
same,IC50,MEG-01,0.858 µM
same,IC50,NOMO-1,> 2 µM
same,IC50,C2BBe1,> 2 µM
same,IC50,MC116,> 2000 nM
same,IC50,NB13,> 2 µM
same,IC50,SJSA-1,> 2 µM
same,IC50,HT-144,> 2 µM
same,IC50,ES5,> 2 µM
same,IC50,BB49-HNC,> 2 µM
same,IC50,D-247MG,> 2000 nM
same,IC50,MMAC-SF,> 2 µM
same,IC50,D283 Med,> 2 µM
same,IC50,JAR,> 2 µM
same,IC50,Becker,> 2 µM
same,IC50,KP-N-YS,> 2 µM
same,IC50,LS-411N,> 2 µM
same,IC50,8-MG-BA,> 2 µM
same,IC50,BB65-RCC,> 2 µM
same,IC50,BB30-HNC,> 2000 nM
same,IC50,DU-4475,> 2000 nM
same,IC50,SNB-75,> 2 µM
same,IC50,SK-PN-DW,> 2 µM
same,IC50,MHH-PREB-1,> 2000 nM
same,IC50,EW-11,> 2 µM
same,IC50,SW 962,> 2 µM
same,IC50,NCI-N87,> 2 µM
same,IC50,KS-1,> 2000 nM
same,IC50,IST-MEL1,> 2 µM
same,IC50,PSN1,> 2000 nM
same,IC50,A498,> 2 µM
same,IC50,A3-KAW,> 2000 nM
same,IC50,LB771-HNC,> 2 µM
same,IC50,NCI-H209,> 2 µM
same,IC50,A704,> 2 µM
